The values below come from patent publication EP4417602A1, “SUBSTITUTED PYRAZOLE CARBOXAMIDES, SALTS THEREOF AND THEIR USE AS HERBICIDALLY ACTIVE SUBSTANCES” (Bayer AG, priority 2023, dated 2024).

For one series, the system named is ALOMY. The series can be described thus: A. Herbicidal pre-emergence action on harmful plants (Tables A). It counts as in vivo, Alopecurus myosuroides. Summed up: (§1)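 Values are visual percent damage relative to untreated controls, scored ca. 3 weeks after the compound was sprayed on the covering soil of sown pots (sandy loam) at rates up to 1280 g/ha, formulated as WP or EC with 0.5% additive.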

For series [1], the system named is ECHCG. Described as above. It counts as in vivo, Echinochloa crus-galli. Particulars: visual grading after ca. 3 weeks vs untreated controls, 100% = plants have died off, 0% = as control plants. In short, it runs like this: as §1
Series [2] relates to DIGSA. Nature of the series: B. Herbicidal post-emergence action on harmful plants (Tables B). Type of series: in vivo, Digitaria sanguinalis. As to conditions: application rate 1280 g/ha; Table B12a. As for the experimental part: (§2) Seeds of mono- and dicotyledonous weed plants were placed in plastic pots in sandy loam soil (doubly sown with in each case one species of mono- or dicotyledonous weed plants per pot), covered with soil and cultivated in a greenhouse under controlled growth conditions. 2 to 3 weeks after sowing, the test plants were treated at the one-leaf stage. The compounds of the invention, formulated in the form of wettable powders (WP) or as emulsion concentrates (EC), were applied onto the green parts of the plants as aqueous suspension or emulsion with addition of 0.5% additive at a water application rate of 600 liters per hectare (converted). After the test plants had been kept in the greenhouse under optimum growth conditions for about 3 weeks, the activity of the preparations was rated visually in comparison to untreated controls. For example, 100% activity = the plants have died, 0% activity = like control plants. Tables B1 to B12, below, show the effects of selected compounds of the general formula (I) according to table 1 on various harmful plants and an application rate corresponding to 1280 g/ha or below obtained by the experimental procedure mentioned above. Table B1a: post-emergence activity at 1280g/ha against ABUTH in %

Series [3] concerns ECHCG. Described as above. As to conditions: application rate 1280 g/ha; Table B2a. Type of series: in vivo, Echinochloa crus-galli. In short, it runs like this: (§3)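 Greenhouse weeds grown in sandy loam were sprayed post-emergence at the one-leaf stage, 2-3 weeks after sowing. Compounds were applied as WP or EC in water with 0.5% additive at 600 L/ha, at 1280 g/ha or below. Visual damage was rated after about 3 weeks versus untreated plants (0-100%).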

For series [4], the system named is POAAN. The series is described as above. It counts as in vivo, Poa annua. In short, it runs like this: as §3
In series [5] the test system is POAAN. The series can be described thus: A. Herbicidal pre-emergence action on harmful plants (Tables A). Type of series: in vivo, Poa annua. In short, it runs like this: as §1
Series [6] relates to DIGSA. Described as above. Type of series: in vivo, Digitaria sanguinalis. Summed up:
as §1

Series [7] has as its system VERPE. The series can be described thus: B. Herbicidal post-emergence action on harmful plants (Tables B). Particulars: application rate 1280 g/ha; Table B11a. It counts as in vivo, Veronica persica. Summed up:
as §3

The test system of another series is ABUTH. The series is described as above. It counts as in vivo, Abutilon theophrasti. Particulars: application rate 1280 g/ha; Table B1a. As for the experimental part:
as §2

The next series concerns AMARE. The series can be described thus: A. Herbicidal pre-emergence action on harmful plants (Tables A). It counts as in vivo, Amaranthus retroflexus. Particulars: application rate 1280 g/ha; visual grading after ca. 3 weeks vs untreated controls; 100% = plants have died off, 0% = as control plants. Summed up: as §1
A further series concerns LOLRI. The series is described as above. It counts as in vivo, Lolium rigidum. As to conditions: visual grading after ca. 3 weeks vs untreated controls, 100% = plants have died off, 0% = as control plants. Summed up:
as §1

Series [8] relates to MATIN. The series can be described thus: B. Herbicidal post-emergence action on harmful plants (Tables B). It counts as in vivo, Matricaria inodora. As for the experimental part:
as §2

The test system of series [9] is MATIN. The series can be described thus: A. Herbicidal pre-emergence action on harmful plants (Tables A). It counts as in vivo, Matricaria inodora. As to conditions: visual grading after ca. 3 weeks vs untreated controls, 100% = plants have died off, 0% = as control plants. In short, it runs like this:
as §1

For the next series, the system named is STEME. Described as above. As to conditions: visual grading after ca. 3 weeks vs untreated controls, 100% = plants have died off, 0% = as control plants. Type of series: in vivo, Stellaria media. Summed up: as §1
The next series deals with SETVI. The description is as above. Type of series: in vivo, Setaria viridis. Particulars: visual grading after ca. 3 weeks vs untreated controls, 100% = plants have died off, 0% = as control plants. Summed up: as §1
Series [10] has as its system VERPE. Described as above. Type of series: in vivo, Veronica persica. Particulars: application rate 1280 g/ha; Table A11. An excerpt: Seeds of mono- and dicotyledonous weed plants were sown in plastic pots (double sowings with one species of mono- and one species of dicotyledonous weed plants per pot), in sandy loam, and covered with soil. The compounds according to the invention, formulated in the form of wettable powders (WP) or as emulsifiable concentrates (EC), were applied to the surface of the covering soil as aqueous suspension or emulsion, with the addition of 0.5% of an additive, at an application rate of 6001 of water per hectare (converted). Following treatment, the pots were placed in a greenhouse and kept under optimum growth conditions for the test plants. The visual grading of the damage to the test plants was carried out after ca. 3 weeks in comparison to untreated controls (herbicidal effect in percent (%): 100% effect = plants have died off, 0% effect = as control plants). Tables A1 to A12, below, show the effects of selected compounds of the general formula (I) according to table 1 on various harmful plants and an application rate corresponding to 1280 g/ha or below obtained by the experimental procedure mentioned above. Table A1: pre-emergence activity at 1280g/ha against ABUTH in %

Series [11] has as its system ZEAMX. Nature of the series: F. Post-emergence effects on crop plants (Tables F). As to conditions: crop plant. Type of series: in vivo, Zea mays. An excerpt: (§4) Seeds of mono- and dicotyledonous weed plants and crop plants were sown, in plastic or organic planting pots, in sandy loam, covered with soil and grown in a greenhouse under controlled growth conditions. 2 to 3 weeks after sowing, the test plants were sprayed in the single-leaf stage. The compounds according to the invention, formulated in form of wettable powders (WP) or as emulsifiable concentrates (EC), were sprayed onto the green plant parts as aqueous suspension or emulsion, with the addition of 0.5% of an additive, at an application rate of 6001 of water/ha (converted). The test plants were placed in the greenhouse for ca. 3 weeks under optimum growth conditions, and then the effect of the preparations was assessed visually in comparison with untreated controls (herbicidal effect in percent (%): 100% effect = plants have died off, 0% effect = as control plants). Tables F1 to F5 below show the effects of selected compounds of the general formula (I) according to table 1 on various crop plants and an application rate corresponding to 320 g/ha or below obtained by the experimental procedure mentioned above. Table […]: post-emergence activity at 320g/ha against ZEAMX in %

Series [12] has as its system BRSNW. Described as above. Type of series: in vivo, Brassica napus. As to conditions: application rate 320 g/ha, crop plant.
Description: as §4

Series [13] concerns GLXMA. The description is as above. Type of series: in vivo, Glycine max. Particulars: application rate 320 g/ha, crop plant.
Description: as §4

In series [14] the test system is GLXMA. The series can be described thus: D. Pre-emergence effects on crop plants (Tables D). It counts as in vivo, Glycine max. Particulars: crop plant. An excerpt:
(§5) Seeds of mono- and dicotyledonous weed plants and crop plants were sown, in plastic or organic planting pots, in sandy loam and covered with soil. The compounds according to the invention, formulated in the form of wettable powders (WP) or as emulsifiable concentrates (EC), were applied to the surface of the covering soil as aqueous suspension or emulsion, with the addition of 0.5% of an additive, at an application rate of 6001 of water/ha (converted).
(§6) Following treatment, the pots were placed in a greenhouse and kept under optimum growth conditions for the test plants. The visual grading of the damage to the test plants was carried out after ca. 3 weeks in comparison to untreated controls (herbicidal effect in percent (%): 100% effect = plants have died off, 0% effect = as control plants).
(§7) Tables D1 to D5 below show the effects of various compounds of the general formula (I) according to Table 1 on various crop plants and an application rate corresponding to 320 g/ha or below obtained by the experimental procedure mentioned above in Biological Examples, Section C. Table D1a: pre-emergence activity at 320g/ha against ZEAMX in %

Series [15] deals with ZEAMX. The series can be described thus: D. Pre-emergence effects on crop plants (Tables D). It counts as in vivo, Zea mays. Particulars: crop plant.
Description: as §5, §6, §7

Series [16] relates to TRZAS. Nature of the series: D. Pre-emergence effects on crop plants (Tables D). Type of series: in vivo, Triticum aestivum. As to conditions: crop plant.
Description: as §5, §6, §7

The subject of series [17] is BRSNW. The series can be described thus: D. Pre-emergence effects on crop plants (Tables D). It counts as in vivo, Brassica napus. As to conditions: crop plant.
Description: as §5, §6, §7

Series [18] relates to TRZAS. Nature of the series: F. Post-emergence effects on crop plants (Tables F). It counts as in vivo, Triticum aestivum. As to conditions: crop plant.
Description: as §4

`COCc1nn(C)cc1C(=O)N1CCCC1Cc1cccc(F)c1F` (racemic) [Example I-077]: the “pre-emergence activity against ALOMY” value with ALOMY (application rate 320 g/ha, Table A9b) came out at 90%; in the series on ALOMY (application rate 1280 g/ha, Table A9a), 90%. Further, the “pre-emergence activity against ECHCG” value in the series on ECHCG [1] (application rate 80 g/ha) worked out at 90%; in the series on ECHCG [1] (application rate 320 g/ha), 90%; in the series with ECHCG [1] (application rate 1280 g/ha), 100%. In addition, in the series on DIGSA [2], the “post-emergence activity against DIGSA” value turned out to be 90%. The “post-emergence activity against ECHCG” value with ECHCG [3] amounted to 90%. In addition, the “post-emergence activity against POAAN” value with POAAN [4] (application rate 320 g/ha, Table B7b) is given as 90%; in the series with POAAN [4] (application rate 1280 g/ha, Table B7a), 90%. The “pre-emergence activity against POAAN” value with POAAN [5] (application rate 80 g/ha, Table A7c) turned out to be 100%; with POAAN [5] (application rate 320 g/ha, Table A7b) it was 100%; in the series on POAAN [5] (application rate 1280 g/ha, visual grading after ca. 3 weeks vs untreated controls, 100% = plants have died off, 0% = as control plants), 100%. Besides, the “pre-emergence activity against DIGSA” value is 100% in the series with DIGSA [6] (application rate 320 g/ha, Table A12b) and 100% with DIGSA [6] (application rate 1280 g/ha, Table A12a). In addition, the “post-emergence activity against VERPE” value in the series with VERPE [7] is 90%. The “post-emergence activity against ABUTH” value in the series with ABUTH was 90%. The “pre-emergence activity against AMARE” value in the series with AMARE is reported as 90%. Besides, the “pre-emergence activity against LOLRI” value in the series with LOLRI (application rate 320 g/ha) stood at 90%; in the series with LOLRI (application rate 1280 g/ha) it was 100%. Moreover, the “post-emergence activity against MATIN” value was 90% with MATIN [8] (application rate 320 g/ha, Table B4b) and 90% in the series with MATIN [8] (application rate 1280 g/ha, Table B4a). Besides, the “pre-emergence activity against MATIN” value in the series on MATIN [9] (application rate 320 g/ha) and in the series with MATIN [9] (application rate 1280 g/ha) was 90% throughout. Further, the “pre-emergence activity against STEME” value with STEME (application rate 80 g/ha), with STEME (application rate 320 g/ha) and in the series with STEME (application rate 1280 g/ha) was 90% in each case. The “pre-emergence activity against SETVI” value with SETVI (application rate 320 g/ha) and with SETVI (application rate 1280 g/ha) was 90% in each case. Also, the “pre-emergence activity against VERPE” value with VERPE [10] was found to be 90%.

With `Cn1cc(C(=O)N2CCCC2Cc2ccccc2F)c(COCC2COC2)n1` (racemic) [Example I-091], the “post-emergence activity against ZEAMX in %” value with ZEAMX [11] (application rate 80 g/ha) and in the series with ZEAMX [11] (application rate 320 g/ha) was 0% each time. Also, in the series with BRSNW [12], the “post-emergence activity against BRSNW in %” value amounted to 0%. Moreover, the “post-emergence activity against GLXMA in %” value in the series on GLXMA [13] came out at 0%. The “pre-emergence activity against GLXMA” value with GLXMA [14] (application rate 80 g/ha, Table D4b) worked out at 0%; with GLXMA [14] (application rate 320 g/ha, Table D4a), 0%. Further, the “pre-emergence activity against ZEAMX” value with ZEAMX [15] (application rate 80 g/ha, Table D1b) was found to be 0%; with ZEAMX [15] (application rate 320 g/ha, Table D1a), 0%. Further, the “pre-emergence activity against TRZAS” value came to 0% in the series on TRZAS [16] (application rate 80 g/ha, Table D2b) and 0% in the series with TRZAS [16] (application rate 320 g/ha, Table D2a). Besides, the “pre-emergence activity against BRSNW in %” value in the series with BRSNW [17] (application rate 80 g/ha) and in the series on BRSNW [17] (application rate 320 g/ha) was 0% in each case. The “post-emergence activity against TRZAS in %” value in the series with TRZAS [18] (application rate 80 g/ha) and in the series on TRZAS [18] (application rate 320 g/ha) was 0% in each case.
